In ChEMBL document CHEMBL5370524, “Design and synthesis of a novel class of PDE4 inhibitors with antioxidant properties as bifunctional agents for the potential treatment of COPD” (Eur J Med Chem, 2023):
Active and inactive are the calls of the source. The calls are words filed in the database; no cut-off is given here.

Columns and labels:
[1] = Antioxidant activity assessed as DPPH radical scavenging activity at 10 uM by spectrophotometric analysis relative to control; type: functional
RAW264.7 [2] = assay: Cytotoxicity against LPS-induced mouse RAW264.7 cells assessed as reduction in cell viability at 2.5 to 10 uM measured after 12 hrs by CCK-8 assay; type: toxicity, cell-based; conditions: raw264.7, 12 h, dose 2.5-10 µM
[3] = Antioxidant activity assessed as DPPH radical scavenging activity by spectrophotometric analysis; type: functional
Mus musculus [4] = species on record: Mus musculus; assay: Antioxidant activity in Fe2+-induced mouse assessed as inhibition of MDA production in lung homogenate at 250 to 1000 uM incubated for 60 mins; type: functional; conditions: dose 250-1000 µM
RAW264.7 [5] = assay: Antiinflammatory activity in LPS-induced mouse RAW264.7 cells assessed as inhibition of TNF-alpha production at 2.5 to 10 uM pretreated with compound for 1 hr followed by LPS-stimulation and measured after 12 hrs by ELISA analysis; type: functional, cell-based; conditions: dose 2.5-10 µM, time 13.0 hrs
Phosphodiesterase 4 = Phosphodiesterase 4 (Homo sapiens, UniProt P27815+Q08499+Q07343+Q08493); assay: Inhibition of PDE4 (unknown origin) using fluorescein-cAMP as substrate incubated for 45 mins by fluorescence polarization assay; type: protein assay
[6] = Metabolic stability in human liver microsome assessed as half life measured upto 45 mins in presence of NADPH by LC-MS/MS analysis; type: ADME; conditions: liver microsomes
[7] = Metabolic stability in human liver microsome assessed as intrinsic clearance measured upto 45 mins in presence of NADPH by LC-MS/MS analysis; type: ADME; conditions: liver microsomes, read-out: CLH
Mus musculus [8] = assay: Antiinflammatory activity in LPS-induced ICR mouse model assessed as reduction in TNF-alpha production in serum at 10 mg/kg, ip pretreated with compound for 1 hr followed by LPS-induction and measured after 60 mins ny ELISA analysis; type: functional; parameters: scale not given: the % may be the effect or the level left; conditions: time 2 hrs
Mus musculus [9] = assay: Antiinflammatory activity in LPS-induced ICR mouse model assessed as reduction in TNF-alpha production in serum at 100 mg/kg, ip pretreated with compound for 1 hr followed by LPS-induction and measured after 60 mins ny ELISA analysis; type: functional; parameters: scale not given: the % may be the effect or the level left; conditions: time 2 hrs
[10] = Metal chelating activity assessed as Fe3+-reducing capacity at 0.006 to 0.2 mM incubated for 30 mins by spectrophotometry analysis; conditions: dose 0.006-0.2 mM
Mus musculus [11] = assay: Antiinflammatory activity in LPS-induced ICR mouse model assessed as reduction in TNF-alpha production in serum at 50 mg/kg, ip pretreated with compound for 1 hr followed by LPS-induction and measured after 60 mins ny ELISA analysis; type: functional; parameters: scale not given: the % may be the effect or the level left; conditions: time 2 hrs
[12] = Metal chelating activity assessed as Fe2+-complex formation capacity at 0.1 to 1 mM by spectrophotometry analysis; conditions: dose 0.1-1 mM

## COc1cc(/C=C2\COc3cc(O)ccc3C2=O)ccc1O
[1]
  Activity: inactive

## O=C1/C(=C/c2ccc(O)c(O)c2)COc2cc(O)ccc21
[1]
  Activity: 48.3%

## CCOc1cc(/C=C/C(=O)c2ccc(O)c(O)c2)ccc1OC
RAW264.7 [2]
  Activity: Non-Toxic
[3]
  IC50: 6.2 µM
Mus musculus [4]
  Activity: Active
RAW264.7 [5]
  Activity: Active
Phosphodiesterase 4
  IC50: 1.45 µM

## COc1ccc(/C=C2\COc3cc(O)ccc3C2=O)cc1OC
[1]
  Activity: inactive

## COc1ccc(/C=C/C(=O)c2ccc(O)c(O)c2)cc1OC
RAW264.7 [2]
  Activity: Non-Toxic
[3]
  IC50: 10.9 µM
Mus musculus [4]
  Activity: Active
RAW264.7 [5]
  Activity: Active
Phosphodiesterase 4
  IC50: 2.78 µM

## O=C(c1ccc(F)cc1)C1CCN(CCn2c(=O)[nH]c3ccccc3c2=O)CC1 [KETANSERIN]
[6]
  half-life: 31.1 min
[7]
  CLint scaled: 56 mL/min/kg

## COc1ccc(/C=C/C(=O)c2ccc(O)c(O)c2)cc1OC(C)C
RAW264.7 [2]
  Activity: Non-Toxic
[3]
  IC50: 6.36 µM
Mus musculus [4]
  Activity: Active
RAW264.7 [5]
  Activity: Active
Phosphodiesterase 4
  IC50: 1.53 µM

## CC1=NN(c2ccccc2)C(=O)C1
[1]
  Activity: 23.6%

## COc1ccc(/C=C/C(=O)c2ccc(O)cc2)cc1OC
[1]
  Activity: inactive

## O=C(/C=C/c1ccc(O)c(O)c1)c1ccc(O)cc1
[1]
  Activity: 60.4%

## COc1ccc(/C=C2\Oc3cc(O)ccc3C2=O)cc1OC
[1]
  Activity: inactive

## O=C1/C(=C/c2ccc(O)c(O)c2)Oc2cc(O)ccc21
[1]
  Activity: 30.2%

## COc1ccc2c(c1)OC/C(=C\c1ccc(O)c(O)c1)C2=O
[1]
  Activity: 49.6%

## COc1ccc(/C=C2\COc3cc(O)ccc3C2=O)cc1OCC1CC1
[1]
  Activity: inactive

## COc1ccc(/C=C/C(=O)c2ccc(O)cc2)cc1OCC1CC1
[1]
  Activity: inactive

## COc1ccc(C2CNC(=O)C2)cc1OC1CCCC1 (stereo not drawn) [ROLIPRAM]
Mus musculus [8]
  Activity: 55.1%

## COc1ccc2c(c1)OC/C(=C\c1ccc(O)c(OC)c1)C2=O
[1]
  Activity: inactive

## COc1ccc(/C=C/C(=O)c2ccc(O)c(O)c2)cc1OC1CCCC1
RAW264.7 [2]
  Activity: Non-Toxic
[3]
  IC50: 5.95 µM
Mus musculus [4]
  Activity: Active
RAW264.7 [5]
  Activity: Active
Phosphodiesterase 4
  IC50: 1.82 µM

## COc1ccc(/C=C/C(=O)c2ccc(O)c(O)c2)cc1OCC1CC1
Mus musculus [9]
  Activity: 54.7%
RAW264.7 [2]
  Activity: Non-Toxic
[6]
  half-life: 48 min
[3]
  IC50: 6.97 µM
Mus musculus [4]
  Activity: Active
[10]
  Activity: Active
[7]
  CLint scaled: 36.2 mL/min/kg
Mus musculus [11]
  Activity: 20.2%
RAW264.7 [5]
  Activity: Active
[12]
  Activity: Active
Phosphodiesterase 4
  IC50: 1.56 µM

## COc1ccc(/C=C2\Oc3cc(O)ccc3C2=O)cc1OCC1CC1
[1]
  Activity: inactive

## COc1ccc(/C=C2\COc3cc(O)ccc3C2=O)cc1O
[1]
  Activity: inactive
